# Experimental data taken from US20220133842A1 (priority 2019, published 2022).
# Values joined by “and” are separate entries in the source; they are usually repeats but may differ in a detail not shown here. Equal values may be shown once. Read-outs that look alike come from different tables or passages of the source.
# Legend:
# [1] = test system: Acinetobacter baumannii (CIP 110431); type: cell-based
# [2] = test system: Citrobacter farmeri (ATCC 51633); type: cell-based
# [3] = test system: Citrobacter rodentium (ATCC 51116); type: cell-based
# [4] = test system: Escherichia coli (ATCC 8739); type: cell-based
# [5] = test system: Klebsiella pneumoniae (DSMZ 26371); type: cell-based
# [6] = test system: Klebsiella variicola (DSM 15968); type: cell-based
# [7] = test system: Pseudomonas aeruginosa (CIP 107398); type: cell-based
# [8] = test system: Salmonella enterica (CIP 80.39); type: cell-based
# [9] = test system: Shigella flexneri (ATCC 12022); type: cell-based
# [10] = test system: Bacteroides thetaioataomicron (DSM 2255); experiment: microbe, parasite or virus in culture; type: cell-based
# [11] = test system: Helicobacter pylori (ATCC 43504); experiment: microbe, parasite or virus in culture; type: cell-based
# [12] = test system: Arthrobacter gandavensis (DSM 2447); type: cell-based
# [13] = test system: Bacillus cereus (DSM 31); type: cell-based
# [14] = test system: Bacillus subtilis (DSM 347); type: cell-based
# [15] = test system: Lactococcus lactis (DSM 20481); type: cell-based
# [16] = test system: Listeria monocytogenes (DSM 20600); type: cell-based
# [17] = test system: Micrococcus luteus (DSM 20030); type: cell-based
# [18] = test system: Staphylococcus aureus MRSA USA300 (ATCC BAA-1717); type: cell-based
# [19] = test system: Staphylococcus aureus (ATCC 6538P); type: cell-based
# [20] = test system: Clostridium botulinum (DSM 1985); experiment: microbe, parasite or virus in culture; type: cell-based
# [21] = test system: Clostridium coccoides (DSM 935); experiment: microbe, parasite or virus in culture; type: cell-based
# [22] = test system: Clostridium difficile (DSM 1296); experiment: microbe, parasite or virus in culture; type: cell-based
# [23] = test system: Clostridium nexile (DSM 1787); experiment: microbe, parasite or virus in culture; type: cell-based
# [24] = test system: Clostridium propionicum (DSM 6251); experiment: microbe, parasite or virus in culture; type: cell-based
# [25] = test system: Enterococcus faecalis (DSM 13591); experiment: microbe, parasite or virus in culture; type: cell-based
# [26] = test system: Lactobacillus acidophilus (DSM 20079); experiment: microbe, parasite or virus in culture; type: cell-based
# [27] = test system: Propionibacterium acnes (ATCC 6919); experiment: microbe, parasite or virus in culture; type: cell-based
# [28] = test system: Streptococcus pyogenes (DSM 20565); experiment: microbe, parasite or virus in culture; type: cell-based
# [29] = test system: Streptococcus thermophilus (ATCC LMD-9); experiment: microbe, parasite or virus in culture; type: cell-based
# [30] = test system: Mycobacterium smegmatis (ATCC 700084); type: cell-based
# [31] = test system: Aspergillus flavus (DSM 1959); type: cell-based
# [32] = test system: Aspergillus niger (ATCC 9142); type: cell-based
# [33] = test system: Aspergillus ochraceus (DSM 824); type: cell-based
# [34] = test system: Candida albicans (DSM 10697); type: cell-based
# [35] = test system: Fusarium graminearum (DSM 1095); type: cell-based
# [36] = test system: Fusarium oxysporum (DSM 62316); type: cell-based
# [37] = test system: Fusarium verticillioides (DSM 62264); type: cell-based
# [38] = test system: Caco-2 cells (ATCC HTB-37); experiment: cells; type: cell-based, human; conditions: read-out: IC50 (concentration causing 50% cell death)
# [39] = test system: T84 cells (ATCC CCL-248); experiment: cells; type: cell-based, human; conditions: read-out: IC50 (concentration causing 50% cell death)
# [40] = test system: IPEC-J2 cells; experiment: cells; type: cell-based, pig; conditions: read-out: IC50 (concentration causing 50% cell death)
# [41] = test system: Clostridium perfringens (ATCC 13124)
# [42] = test system: human (Caco-2 and T84) and pig (IPEC-J2) intestinal cells
# [43] = test system: Caco-2 cells
# [44] = test system: T84 cells
# [45] = test system: IPEC-J2 cells
# [46] = test system: human or porcine intestinal cells grown on inserts
# [47] = test system: Clostridium perfringens (ATCC 13124); experiment: microbe, parasite or virus in culture; conditions: ATCC13124
# [48] = test system: Penicillium verrucosum (DSM 12639); type: cell-based
# [49] = test system: clinical strains of Clostridium perfringens isolated from human patients or animals; type: cell-based
# [50] = test system: Clostridium perfringens strain (ATCC 13124) and clinical strains of Clostridium perfringens; type: cell-based
# [51] = test system: Clostridium perfringens (ATCC13124); type: cell-based
# [52] = test system: Clostridium perfringens (ATCC 13124); type: cell-based
# [53] = test system: Clostridium perfringens (ATCC 13124); type: cell-based; remark: listed apart in the source
# [54] = Clostridium perfringens, ATCC13124
molecule,measurement,setting,value
CO/C1=C\C(C)=C\[C@@H](C)[C@@H](O)[C@@H](C)C/C(C)=C/C=C/[C@H](OC)[C@@H]([C@@H](C)[C@@H](O)[C@H](C)[C@@]2(O)C[C@@H](O)[C@H](C)[C@@H](C(C)C)O2)OC1=O [Bafilomycin A1],MIC,[1],>100 µM
same,MIC,[2],100 µM
same,MIC,[3],>100 µM
same,MIC,[4],25 µM
same,MIC,[5],100 µM
same,MIC,[6],>100 µM
same,MIC,[7],>100 µM
same,MIC,[8],>100 µM
same,MIC,[9],>100 µM
same,MIC,[10],>100 µM
same,MIC,[11],>100 µM
same,MIC,[12],3 µM
same,MIC,[13],12.5 µM
same,MIC,[14],100 µM
same,MIC,[15],50 µM
same,MIC,[16],25 µM
same,MIC,[17],25 µM
same,MIC,[18],>100 µM
same,MIC,[19],12.5 µM
same,MIC,"[20]; Clostridium botulinum, DSM1985",6.25 µM
same,MIC,[21],>100 µM
same,MIC,[22],>100 µM
same,MIC,[23],50 µM
same,MIC,[24],25 µM
same,MIC,[25],>100 µM
same,MIC,[26],33 µM
same,MIC,[27],50 µM
same,MIC,[28],66 µM
same,MIC,[29],25 µM
same,MIC,[30],>100 µM
same,MIC,[31],3.25 µM
same,MIC,[32],>100 µM
same,MIC,[33],>100 µM
same,MIC,[34],>100 µM
same,MIC,[35]; Fusarium graminearum (DSM 1095),6.25 µM
same,MIC,[36],>100 µM
same,MIC,[37],50 µM
same,IC50,[38],11.8 µM
same,IC50,[39],9.9 µM
same,IC50,[40],1.8 µM
same,MIC,[41]; [54],25 µM
same,MIC (mg/L),[41]; [54],15.5 mg/L
same,safety factor (IC50 in the toxicity test divided by MIC on Clostridium perfringens ATCC 13124),[42],less than 1
same,toxicity to intestinal cells,[42],toxic
same,transepithelial electrical resistance,[43],112 ohm.cm2
same,transepithelial electrical resistance,[44],118 ohm.cm2
same,transepithelial electrical resistance,[45],191 ohm.cm2
same,decrease in transepithelial electrical resistance,[46],61-75%
CN(C)[C@@H]1C(O)=C(C(N)=O)C(=O)[C@@]2(O)C(O)=C3C(=O)c4c(O)cccc4[C@@](C)(O)[C@H]3C[C@@H]12 [Tetracycline],MIC,[47],11.7 µM and 5.2 µg/mL
Destruxin B,MIC,[1],>100 µM
same,MIC,[2],>100 µM
same,MIC,[3],>100 µM
same,MIC,[4],>100 µM
same,MIC,[5],>100 µM
same,MIC,[6],>100 µM
same,MIC,[7],>100 µM
same,MIC,[8],>100 µM
same,MIC,[9],>100 µM
same,MIC,[10],>100 µM
same,MIC,[11],>100 µM
same,MIC,[12],>100 µM
same,MIC,[13],>100 µM
same,MIC,[14],>100 µM
same,MIC,[15],>100 µM
same,MIC,[16],>100 µM
same,MIC,[17],>100 µM
same,MIC,[18],>100 µM
same,MIC,[19],>100 µM
same,MIC,[20],>100 µM
same,MIC,[21],>100 µM
same,MIC,[22],>100 µM
same,MIC,[23],>100 µM
same,MIC,[24],>100 µM
same,MIC,[25],>100 µM
same,MIC,[26],>100 µM
same,MIC,[27],>100 µM
same,MIC,[28],>100 µM
same,MIC,[29],>100 µM
same,MIC,[30],>100 µM
same,MIC,[31],>100 µM
same,MIC,[32],>100 µM
same,MIC,[33],>100 µM
same,MIC,[34],>100 µM
same,MIC,[35],>100 µM
same,MIC,[36],>100 µM
same,MIC,[37],>100 µM
same,MIC,[48],>100 µM
same,MIC,[49],3 µM and 1.5 µM
same,minimum bactericidal concentrations (BMC values),[50],identical to the MIC values
same,change of MIC during exposure,[51],do not change or change only slightly
same,IC50,[38],> 100 µM
same,IC50,[39],> 100 µM
same,IC50,[40],> 100 µM
same,permeabilisation of the bacterial membrane,[52],no permeabilisation
same,morphological phenotype (mechanism of action),[53],hypercondensation of bacterial DNA
same,MIC (mg/L),[41],1.78 mg/L
same,toxicity to intestinal cells,[42],not toxic
